Results taken from a melting point compilation (Tetko et al.).

SMILES | melting point [°C]
O=C(Nc1c[nH]c(=O)[nH]c1=O)C(F)(F)C(F)(F)C(F)(F)C(F)(F)C(F)(F)C(F)(F)C(F)(F)C(F)(F)F | 250 to 252
O=[N+]([O-])c1cc(Br)cc(Br)c1O | 118 to 119
O=C(O)c1ccc(O)c(F)c1F | 207
ClCc1c(Cl)cccc1Cl | 38
CC(=O)Nc1ccc(C(C)=O)cc1Br | 140
CCCSP(=S)(OCC)Oc1ccc(SC)cc1 (stereo unspecified) | -15
NC(=O)C(Cl)(Cl)Cl | 142
OCc1ccc(-c2cccs2)s1 | 51 to 54
CC(=O)N1c2cc3[nH]c(C)cc3cc2CC1C (stereo unspecified) | 275
CCOC(=O)Nc1ccc2cc3ccc4c(c3nc2c1)COCN4C(=O)OCC | 174
O=Cc1ccc(C=O)s1 | 114 to 117
O=Cc1ccc([N+](=O)[O-])cc1[N+](=O)[O-] | 72
CCC1CC(OP(=O)(O)O)CC(C)(C)N1O (stereo unspecified) | 270
Cc1c(-c2ccccc2)[nH]c2ccccc12 | 91.5
Brc1ccc(-c2ccccc2)s1 | 83 to 85
CC(OCc1ccccc1)C(NC(=O)OC(C)(C)C)C(=O)O (stereo unspecified) | 116
O=C(O)c1ccc(CSc2ccc(C(F)(F)F)cn2)o1 | 176 to 178
CC(=O)Oc1cc(OC(C)=O)c2c(=O)c(OC(C)=O)c(-c3ccc(OCc4ccccc4)cc3)oc2c1 | 150
Cc1nn(-c2ccccc2)nc1CBr | 72 to 73
Nc1ccn(C2OC(COP(=O)(O)O)C(O)C2O)c(=O)n1 (stereo unspecified) | 233
C=CCn1c(=S)[nH]c2ccccc2c1=O | 206 to 207
CCCCC(CC)C(=O)O (stereo unspecified) | -59
Nc1c(F)ccc(Cl)c1F | 47
Cc1ccc2[nH]c(C)cc2c1 | 115
CC(=O)N1N=C(c2ccc3ccccc3c2)CC1c1ccccc1Cl (stereo unspecified) | 173
COc1ccc2nc(Cl)c(CO)cc2c1 | 133

SMILES | melting point [°C]
COC(=O)c1csc(S(=O)(=O)Cl)c1OC | 93 to 96
O=C(Cl)c1nc2ccccc2s1 | 150
CC(C)N=c1cc2n(-c3ccc(Cl)cc3)c3ccccc3nc-2cc1Nc1ccc(Cl)cc1 | 211
c1ccc(CP(c2ccccc2)c2ccccc2)cc1 | 75
O=C1OC(CO)C(O)C1O (stereo unspecified) | 83 to 85
OCCN(CCO)CCc1ccc(COc2ccccc2)cc1 | 83
NC=S | 26.5
C1CCC(CCCCCC2CCCCC2)CC1 | -13.6
Cc1ccc(S(=O)(=O)OC2CCC3(C)C(CCC4C5CCC(=O)C5(C)CCC43)C2)cc1 (stereo unspecified) | 164 to 166
CC(C)(C)OC(=O)N[C@@H](CC(=O)O)c1ccc(Br)cc1 | 144
Cc1cccc(/N=N/c2c(N)nn3c(-c4ccccc4)cc(=O)[nH]c23)c1 | 296
Cc1c(C(=O)O)nnn1Cc1ccccc1 | 170 to 171
Cc1ccc(C=C(Oc2ccccc2)c2nc3ccccc3s2)cc1 | 161 to 165
CCOC(=O)c1cc2cc3ccccc3cc2cc(C(=O)OCC)c1=O | 161
CCOC(=O)c1c(N=C=S)sc2c1CCCC2 | 45 to 46
COc1ccc(-c2onc(C(=O)c3cccs3)c2S(=O)(=O)c2ccccc2)cc1 | 120
c1cc2ccc3ccc4ccc5cccc6c(c1)c2c3c4c56 | 278
CCN(CC)C(=O)c1[nH]c(C)c(C)c1C | 113 to 115
CC12CCC3C(CCC4CC5SC5CC43C)C1CCC2O (stereo unspecified) | 127
O=[N+]([O-])c1ccc(-c2nnc3n2NC(c2ccc([N+](=O)[O-])cc2)S3)cc1 (stereo unspecified) | 229
COC(=O)c1cc2ccccc2[nH]1 | 151 to 153
CCOC(=O)N1COCc2c1ccc1cc3ccc4c(c3nc21)COCN4C(=O)OCC | 195
O=S(=O)(Cl)c1ccc(Oc2ccccc2)cc1 | 44
Cc1ccc2[nH]cc(CC(N)C(=O)O)c2c1 (racemic) | 280 to 282
Cc1cc([N+](=O)[O-])cc(Cl)c1N | 175
FC(F)(F)c1cccnc1S | 180 to 182

SMILES | melting point [°C]
Nc1cc(-c2ccco2)[nH]n1 | 126
COC(=O)c1sc(C(F)(F)F)c(-c2ccccc2)c1N | 119 to 120
COc1ccc([N+](=O)[O-])cc1C(=O)O | 157
Nc1ccc(Nc2ccc(N)cc2)cc1 | 158
O=C(c1ccc(Br)cc1)c1noc(-c2ccc(Cl)cc2)c1S(=O)(=O)c1ccccc1 | 145
CCOC(=O)c1cc(C)nc2ccc(Br)cc12 | 110 to 111
COc1ccc(Br)c(C)c1C(=O)O | 163
CCCCCCC1CCCCC1 | -43
O=C(O)Cc1ccc(C(=O)CCl)s1 | 101 to 104
CCCCCCCCCCC(Br)C(=O)O (stereo unspecified) | 32
CCCCCCCCCCC(=O)OCC | -15
CC(=O)c1nn2c(C(F)(F)F)nnc2s1 | 200
CCOc1ccc(-c2nnc3n2NC(c2ccccc2O)S3)cc1 (stereo unspecified) | 177
CNC(C)(C)C(=O)O | 300
Cc1cccc(C(C)C)c1O | -14.5
CC(C)(C)OC(=O)Nc1ccco1 | 98 to 100
Fc1cc(Br)c(Br)cc1F | 33
CC(C)(NC(=O)OCc1ccccc1)C(=O)O | 77 to 80
Cc1c(Br)cccc1[N+](=O)[O-] | 40
Cc1c(C)c([N+](=O)[O-])c(C(C)(C)C)c([N+](=O)[O-])c1C | 136
Nc1cccc(-c2ncccn2)c1 | 99.5 to 102
Cc1sc(C2CCN(C(=O)OC(C)(C)C)CC2)nc1CC(=O)O | 48 to 50
CC12CCC3C4CCC(=O)C(O)=C4CCC3C1CCC2O (stereo unspecified) | 189
CCOC(=O)c1c(SC)nn2c(=O)n(Nc3ccccc3)cnc12 | 118 to 122
CC(=O)Oc1ccc(C)c(C)c1 | 22
CCC(C)CC(C)(C)C (stereo unspecified) | -120

SMILES | melting point [°C]
CC(=O)Oc1ccc(C2(c3ccc(OC(C)=O)cc3)Oc3ccccc3NC2=O)cc1 | 190
CC(=O)CS(C)(=O)=O | 54
Cc1nnc(SCc2ccccc2)n1N=Cc1ccc(N(C)C)cc1 | 47 to 49
CCCCCCCCCCCCOC(C)=O | 1.3
CC(=O)OCC(=O)C1CCC2C3CCC4CC(O)CCC4(C)C3C(=O)CC12C (stereo unspecified) | 176
COc1ccccc1C1CCN(c2ccc(C=CC(=O)O)cc2[N+](=O)[O-])CC1 | 204 to 206
COc1ccc2nnc(-c3ccc(C(F)(F)F)cc3)n2n1 | 142
FC(F)(Br)CBr | -61
CNC(c1ccccc1)C(NC)c1ccccc1 (stereo unspecified) | 48 to 51
O=[N+]([O-])c1ccc(I)c(Cl)c1 | 99
O=C1CCC(c2ccc(NC(=O)c3cccc(C(F)(F)F)c3)cc2)=NN1 | 234 to 235
CC(=O)C1CCC2C3CCC4CC(O)CCC4(C)C3CCC12C (stereo unspecified) | 194
CC(=O)c1cn(C)c2ccccc12 | 107
CC(=O)Nc1ccc2c(OC(C)=O)c(-c3ccccc3)[nH]c2c1 | 219
Cc1cc(C)cc(C2Oc3c(Cl)c(Cl)c(Cl)c(Cl)c3O2)c1 | 160
CCOCCOCCOCCO | -18.7
CCOC(=O)CCCCCCCC(=O)OCC | -18.5
N=C1NC(=N)c2ccccc21 | 190
O=C(O)c1csc(-c2ccc3c(c2)CCO3)n1 | 210 to 214
CC(=O)n1cc(C=O)c2ccccc21 | 162
FC(F)(F)S(F)(F)(F)(F)F | -87
CCCCN(C)C(=O)Nc1ccc(Cl)c(Cl)c1 | 102
O=Cc1ccc(O)c(OC(F)(F)F)c1 | 78
N#Cc1ccc(Br)cn1 | 126
COc1ccc(C(=O)c2ccc(C)cc2)cc1OC | 109
CCCCC1C(=O)NC(=O)N(C2CCCCC2)C1=O (stereo unspecified) | 84

SMILES | melting point [°C]
Nc1cccnc1Oc1ccc(F)cc1F | 96 to 97
Cc1nc(-c2ccc(C(=O)Cl)cc2)no1 | 112 to 113
Fc1ccc(C(Br)(c2ccc(F)cc2)c2ccc(F)cc2)cc1 | 109
CCCCNc1cc(=O)oc2ccccc12 | 118
COc1ccc(COC(C)=O)cc1 | 84
O=S(=O)(c1ccccc1)n1c(CBr)cc2ccccc21 | 116 to 117
CNC(=O)Oc1cc(C)c(N(C)C)c(C)c1 | 85
Cc1cc2nc(N)sc2cc1C | 185 to 189
Cc1cc(Br)cnc1NC(=O)C(C)(C)C | 127
COC(=O)c1sccc1N | 66 to 67
CC1=C(C(=O)OCc2ccccc2)C(c2ccccc2)N(C)C(=O)N1C (stereo unspecified) | 86
O=C(O)c1ccccc1P(c1ccccc1)c1ccccc1 | 178
N#C/C(=N\Nc1ccc(Cl)cc1)c1nc2ccccc2c(=O)[nH]1 | 253
Clc1cc(Cl)c2c(c1)Oc1cc(Cl)c(Cl)cc1O2 | 194
CC(=O)C(CC(=O)c1ccccc1)C(=O)c1ccccc1 (stereo unspecified) | 90
O=Cc1cc([N+](=O)[O-])ccc1N1CCCC1 | 136 to 138
CC(=O)OC1C(c2ccc(=O)oc2)C2(C)CCC3C(CCC4(O)CC(O)CCC34C)C23OC13 (stereo unspecified) | 260
CCOc1ccc(C(NC(=O)c2ccccc2)NC(=O)c2ccccc2)cc1OC | 211
CCC(C)NC(=O)C(C(F)(F)F)C(F)(F)F (stereo unspecified) | 110 to 113
NNc1nc(N)nc(C23CC4CC(CC(C4)C2)C3)n1 | 265 to 267
Oc1ccnc(S)n1 | 300
O=C1c2ccccc2CC2C=CC=CN12 (stereo unspecified) | 93
